The record followed here is ChEMBL document CHEMBL4627343, “High throughput in vivo phenotypic screening for drug repurposing: Discovery of MLR-1023 a novel insulin sensitizer and novel Lyn kinase activator with clinical proof of concept” (Bioorg Med Chem, 2020).

What is called EC50 is the concentration at which the effect is half-maximal. What is called AUC is the area under the concentration-time curve, a measure of exposure. Higher therefore signals more exposure. A word on the Cmax: it is the maximum level reached in the sampled fluid or tissue. The term Tmax denotes the time at which the peak concentration occurs. The term bioavailability denotes the share of a dose that reaches the circulation, judged against a reference dose that is usually intravenous.

Data set [1] concerns the target Tyrosine-protein kinase Lyn (Homo sapiens, UniProt P07948). As to the kind of experiment: […] of Lyn (unknown origin).
Data set [2] is described as follows: AUC in ip dosed […] administered twice daily. It is filed as ADME, organism-based. Particulars: in vivo.
The nature of data set [3]: Cmax in ip dosed […] administered twice daily. In kind it is ADME, organism-based. Set-up: route intraperitoneal. The settings on record: in vivo.
The nature of data set [4]: Tmax in ip dosed […] administered twice daily. It is filed as ADME, organism-based. Particulars: in vivo.
Data set [5] can be described thus: Bioavailability in ip dosed […] administered twice daily. In kind it is ADME, organism-based. The settings on record: in vivo.
The nature of data set [6]: Toxicity in ip dosed […] administered twice daily. In kind it is organism-based. Particulars: in vivo.
Data set [7] can be described thus: Drug uptake in human brain. In kind it is ADME, tissue-based.

Sequence of Tyrosine-protein kinase Lyn (P07948 whole entry): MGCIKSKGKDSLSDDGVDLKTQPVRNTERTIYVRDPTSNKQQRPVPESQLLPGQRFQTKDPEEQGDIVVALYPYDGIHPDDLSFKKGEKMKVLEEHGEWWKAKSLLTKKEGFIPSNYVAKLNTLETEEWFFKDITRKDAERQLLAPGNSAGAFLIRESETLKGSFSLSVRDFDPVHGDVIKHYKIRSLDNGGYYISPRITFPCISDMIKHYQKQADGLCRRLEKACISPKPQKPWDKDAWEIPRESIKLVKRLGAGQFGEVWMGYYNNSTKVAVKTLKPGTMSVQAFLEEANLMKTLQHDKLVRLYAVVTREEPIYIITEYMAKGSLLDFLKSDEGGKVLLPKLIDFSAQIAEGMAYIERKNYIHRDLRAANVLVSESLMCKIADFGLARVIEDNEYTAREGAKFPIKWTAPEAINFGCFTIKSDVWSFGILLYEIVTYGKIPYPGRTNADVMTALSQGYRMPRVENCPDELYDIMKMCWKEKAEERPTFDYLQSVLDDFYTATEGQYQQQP

`Cc1cccc(Oc2cnc(=O)[nH]c2)c1` [TOLIMIDONE]: the EC50 in data set [1] was found to be 63 nM. For the same compound, the AUC in data set [2] turned out to be 4780 ng·h/mL. The compound further showed a Cmax in data set [3] of 6540 ng/mL. Besides, the Tmax in data set [4] amounted to 15 min. This compound also displayed a bioavailability in data set [5] of 53.9%. The MTD in data set [6] was 100 mg/kg. Moreover, the Drug uptake in data set [7] was determined as 1.3%.
